Consider three substances from PMC7966987, “Insights into the catalytic properties of the mitochondrial rhomboid protease PARL” (The Journal of Biological Chemistry, 2021).

The target in test [1] is T1, human PARLΔ55 (Homo sapiens, UniProt Q9H300).
T1 construct: to generate full-length (FL) starting at residue 55 or the β-cleavage form truncated at residue 77; GFP-hexahistidine (behind a TEV cleavage site) (C, cleaved yes); made in house; host or cells: Pichia pastoris
T1 sequence (Q9H300 56-379): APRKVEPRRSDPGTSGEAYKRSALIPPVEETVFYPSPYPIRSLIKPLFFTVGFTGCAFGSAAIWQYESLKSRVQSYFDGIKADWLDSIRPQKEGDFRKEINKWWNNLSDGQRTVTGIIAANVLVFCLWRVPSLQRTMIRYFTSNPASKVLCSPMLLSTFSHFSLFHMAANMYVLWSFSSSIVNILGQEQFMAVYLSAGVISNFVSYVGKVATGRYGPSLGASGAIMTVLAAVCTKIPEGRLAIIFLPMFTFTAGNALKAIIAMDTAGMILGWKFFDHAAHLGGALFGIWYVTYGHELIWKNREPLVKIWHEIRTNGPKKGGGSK
The test can be described thus: IQ-peptide substrate cleavage kinetics, full-length PARLΔ55 in detergent. The format is biochemical. Conditions: for Km / kcat (turnover rate) / kcat/KM (catalytic efficiency): PARLΔ55 0.8 μM in 0.1% DDM with CL, 50 mM Tris-HCl pH 7.0, 150 mM NaCl, 10% glycerol, 5% DMSO, 37 °C, fluorescence, mean ± SEM. An excerpt:
To further evaluate the cleavage of other known substrates of PARL, we adopted a more facile system to examine cleavage of multiple substrates and generated internally quenched (IQ) peptide substrates ([25], [36], [37], [38]) based on the amino acids flanking the PARL cleavage sites of PINK1 ([39]), PGAM5 ([8]), and Smac/Diablo ([11]). […] The assay allowed us to determine the catalytic parameters for the three primary PARL substrates and examine the substrate specificity (Fig. 2, Tables S2–S4).
(§1) Assays with FRET-PINK1^70–134 were conducted as previously described ([26]). For EDANS/Dabcyl 10-mer IQ peptides (PINK1, PGAM5, Smac/Diablo), lyophilized peptides were initially dissolved in DMSO to obtain a stock solution. The IQ peptide substrates in a concentration range of 0.1–70 μM were incubated with activity assay buffer (50 mM Tris-HCl pH 7.0, 150 mM NaCl, 10% glycerol, 0.1% DDM) in a 384-well black-bottomed plate at 37 °C for 30 min in a multiwell plate reader (SynergyMx, BioTek). For all concentrations of IQ peptide, the DMSO was kept constant at 5%. Following preincubation, PARL was added to a final concentration of 0.8 μM to initiate the cleavage reaction. Fluorescence readings were taken every 3 min over a 3 h time course at ƛex = 336 nm and ƛem = 490 nm. The initial velocity was determined from the fluorescence readings over the time course. For each substrate concentration, a no-enzyme control was subtracted to eliminate background fluorescence changes not related to substrate cleavage. Relative fluorescence units were converted to concentration (μM) by determining the maximum change in fluorescence observed for each substrate concentration when fully digested. GraphPad Prism software was used for Michaelis–Menten analysis of kinetic curves. All kinetic data were obtained using at least three biological replicates (different enzyme preparations) with technical duplicates for each experiment. For kinetic measurements in detergent with all three substrates, the activity assays were repeated at least five times. In addition, after each protease purification, the quality control of purified PARL was controlled by measuring its enzymatic activity. Minimum of three experimental replicates with two technical replicates were used for data analysis.

Test [2] has as its target T1, human PARLΔ55. Put plainly: IQ-peptide substrate cleavage kinetics, PARLΔ55 in proteoliposomes. In kind it is biochemical. Conditions: PARLΔ55 in PLs (E. coli polar lipids), 50 mM Tris-HCl pH 7.0, 150 mM NaCl, 10% glycerol, no DDM, 37 °C; mean ± SEM.
Source text: To assess the activity of recombinant PARL toward known substrates in a lipid bilayer, full-length and β-truncated PARL were reconstituted in proteoliposomes (PLs) using Escherichia coli lipids that closely resemble the composition of the IMM ([31]). We determined that the EDANS/Dabcyl - FRET tags prevented incorporation of the substrates into PL; however, the substrate could still be cleaved since the active site is proposed to be near the lipid/water interface ([40], [41]) analogous to bacterial rhomboid proteases (Fig. 1). To calculate the specific activity of the protease, we quantified the fraction of PARL in the PLs with an outward facing active site using a membrane […] activity-based TAMRA-labeled fluorophosphonate probe ([42]). […] These values were used to calculate specific activity of the PARL protease. Next, we compared cleavage of three IQ-peptide substrates by reconstituted full-length mature PARLΔ55 and the β-truncated form, PARLΔ77 (Fig. 3, Tables S5 and S6).
as §1
E. coli polar lipids (Avanti), 400 μg in chloroform, were dried under nitrogen stream in a glass tube to yield a thin film of lipid. The tube was incubated overnight in a desiccator to completely remove all traces of solvent. In total, 50 μl of water and DDM detergent was added to the lipid film for resuspension at room temperature for 10 min, followed by the addition of purified PARL (400 μg) in 50 mM Tris-HCl, pH 8.0, 150 mM NaCl, 20% glycerol, 0.1% DDM, to yield the final weight ratio of 1 PARL:1 lipid:2 detergent. The detergent was slowly removed by the addition of SM2 Biobeads (Bio-Rad) while stirring on ice for 6 h to allow for the generation of proteoliposomes (PL); the process was controlled by the regimen of Biobead addition. To purify the PL, 50%:20% sucrose density gradient ultracentrifugation was used. A TAMRA probe (ThermoFisher) was used to determine the orientation of reconstituted PARL, which specifically and covalently labels serine residues of an enzymatically active serine protease. In total, 2 μM of TAMRA probe was added to PL samples and incubated for 1 h, allowing the TAMRA probe to label only the outward-facing accessible active sites. […]

Consider “(DABCYL)-AVFLAFGLGL-Glu(EDANS) [IQ-PINK1^99–108, internally quenched DABCYL/EDANS peptide substrate based on PINK1 PARL cleavage site]”, for which, in test [1], the “substrate turnover with PARLΔ55 compared with PARLΔ77” value is “significantly lower substrate turnover”, the Km amounted to 1.9 ± 0.4 µM, the “kcat (turnover rate)” value came out at 0.000117 ± 8.3e-06 s⁻¹ and the “kcat/KM (catalytic efficiency)” value was 61.1 ± 22 M⁻¹ s⁻¹. Besides, in test [2], the Km worked out at 13 ± 2 µM, the “kcat (turnover rate)” value was determined as 0.0025 ± 0.00017 s⁻¹ and the “kcat/KM (catalytic efficiency)” value came out at 190 ± 28 M⁻¹ s⁻¹.
Consider “(DABCYL)-AVFLSAVAVG-Glu(EDANS) [IQ-PGAM5^20–29, internally quenched DABCYL/EDANS peptide substrate based on PGAM5 PARL cleavage site]”, for which, in test [1], the “substrate turnover with PARLΔ55 compared with PARLΔ77” value is given as “significantly lower substrate turnover”, the Km is 0.47 ± 0.07 µM, the “kcat (turnover rate)” value worked out at 0.000128 ± 5.6e-06 s⁻¹ and the “kcat/KM (catalytic efficiency)” value was 278 ± 83 M⁻¹ s⁻¹. In test [2], the Km stood at 1.3 ± 0.2 µM, the “kcat (turnover rate)” value is 0.00133 ± 0.000333 s⁻¹ and the “kcat/KM (catalytic efficiency)” value amounted to 1000 ± 170 M⁻¹ s⁻¹.
On to “(DABCYL)-GVT LCAVPIA-Glu(EDANS) [IQ-Smac/Diablo^51–60, internally quenched DABCYL/EDANS peptide substrate based on Smac/Diablo PARL cleavage site]”, for which, in test [1], the Km turned out to be 6 ± 1 µM, the “kcat (turnover rate)” value amounted to 0.000361 ± 2.8e-05 s⁻¹ and the “kcat/KM (catalytic efficiency)” value is 83 ± 28 M⁻¹ s⁻¹. In test [2], the Km was 3.9 ± 0.7 µM, the “kcat (turnover rate)” value turned out to be 0.00153 ± 8.3e-05 s⁻¹ and the “kcat/KM (catalytic efficiency)” value was found to be 389 ± 83 M⁻¹ s⁻¹.

The term Km denotes the concentration of substrate that gives half-maximal velocity.
